Among the test systems are A498; CAKI-1; SK-OV-3; Hs-578T; OVCAR-3; MCF7; KM12; OVCAR-4; SNB-19; TK-10; LOX IMVI; SNB-75; Malme-3M; T47D; 786-0; NCI-H522; UACC-257; HCC 2998; DU-145; SK-MEL-28.
Holding throughout (assay): growth of human tumour cells (NCI), 48 h

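How tested: cells in 96-well plates exposed to compound for 48 hours at five concentrations. Here, GI50 denotes the concentration required for 50% inhibition of growth.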 Active and inactive are the calls of the source. No stated cut-off is given here; in the data, active = GI50 up to about 1.1 µM and inactive = higher.

For the compound `CN1C(=O)C(=CNc2ccccc2[N+](=O)[O-])C(=O)N(C)C1=O`, the GI50 in the test with A498 was > 100 µM (inactive); in the test on CAKI-1, > 100 µM (inactive); in the test with SK-OV-3 it was > 100 µM (inactive); in the test with Hs-578T it was > 100 µM (inactive); in the test on OVCAR-3 it was > 100 µM (inactive); in the test with MCF7, 10 µM (inactive). The GI50 in the test on KM12, in the test on OVCAR-4, with SNB-19, with TK-10, in the test on LOX IMVI and in the test with SNB-75 was > 100 µM (inactive) each time. Besides, the GI50 in the test with Malme-3M, with T47D, with 786-0, in the test on NCI-H522, in the test on UACC-257 and with HCC 2998 was > 100 µM (inactive) each time.

In the case of `O=P1(c2ccccc2)C(c2ccccc2)CCC1c1ccccc1` (stereo not given), the GI50 in the test with DU-145 is > 100 µM (inactive); in the test on CAKI-1, 16.4 µM (inactive); in the test on SK-OV-3, 40.9 µM (inactive); in the test on SK-MEL-28, > 100 µM (inactive); in the test with Hs-578T, > 100 µM (inactive); in the test on OVCAR-3 it was 53 µM (inactive). Besides, the GI50 is > 100 µM (inactive) in the test on MCF7; 30 µM (inactive) in the test with KM12; > 100 µM (inactive) in the test on SNB-19; 71 µM (inactive) in the test on TK-10; 41.1 µM (inactive) in the test with LOX IMVI; 57.3 µM (inactive) with SNB-75. The GI50 in the test on 786-0 is > 100 µM (inactive); with NCI-H522, 26.4 µM (inactive); in the test on UACC-257, 71.1 µM (inactive); with HCC 2998, > 100 µM (inactive).

In the case of `NS(=O)(=O)c1ccc(-c2ccc([As](=O)(O)O)cc2)cc1`, the GI50 in the test on DU-145, in the test with CAKI-1, in the test with SK-OV-3, in the test with SK-MEL-28, in the test with Hs-578T and in the test on OVCAR-3 was > 100 µM (inactive) in each case. The GI50 with MCF7, in the test with KM12, in the test on OVCAR-4, in the test on SNB-19, in the test on TK-10 and in the test with LOX IMVI was > 100 µM (inactive) throughout. Besides, the GI50 is 11.6 µM (inactive) in the test with SNB-75; > 100 µM (inactive) in the test with Malme-3M; > 100 µM (inactive) with T47D; > 100 µM (inactive) with 786-0; > 100 µM (inactive) in the test with NCI-H522; 32.6 µM (inactive) in the test with UACC-257.

On to `Cn1c(N)nc(-c2ccc(Cl)cc2)c1SSc1c(-c2ccc(Cl)cc2)nc(N)n1C`, for which the GI50 in the test with A498 is 14.3 µM (inactive); with DU-145 it was 12.8 µM (inactive); in the test with SK-OV-3, 14.4 µM (inactive); in the test with SK-MEL-28, 2.02 µM (inactive); in the test on Hs-578T it was 27.1 µM (inactive); with OVCAR-3, 1.82 µM (inactive). For the same compound, the GI50 is 1.85 µM (inactive) with KM12; 1.75 µM (inactive) in the test on OVCAR-4; 14.7 µM (inactive) in the test with SNB-19; 1.86 µM (inactive) with TK-10; 7.67 µM (inactive) in the test on SNB-75; 2.3 µM (inactive) in the test with Malme-3M. For the same compound, the GI50 in the test with T47D is 2.28 µM (inactive); in the test on 786-0, 1.92 µM (inactive); in the test on NCI-H522, 1.66 µM (inactive); with UACC-257, 2.04 µM (inactive); in the test with HCC 2998 it was 7.82 µM (inactive).

With `COC(=O)CCCc1ccc2c(c1)CC1(Cc3ccccc3C1)C2`, the GI50 in the test with A498 is 59.2 µM (inactive); in the test on SK-OV-3, > 100 µM (inactive); in the test with Hs-578T, > 100 µM (inactive); in the test on OVCAR-3, 62.2 µM (inactive); in the test on MCF7 it was 53.6 µM (inactive); with KM12, > 100 µM (inactive). For the same compound, the GI50 was 63 µM (inactive) in the test with OVCAR-4; > 100 µM (inactive) in the test on TK-10; 40.3 µM (inactive) with LOX IMVI; 87.1 µM (inactive) with Malme-3M; > 100 µM (inactive) with T47D; > 100 µM (inactive) in the test on 786-0. Moreover, the GI50 in the test on NCI-H522 was 47.6 µM (inactive); in the test with UACC-257, 32.2 µM (inactive); in the test with HCC 2998 it was 70.1 µM (inactive).

With `O=C(N/N=C1\C(=O)Nc2c(Cl)cc(Cl)cc21)C(=O)Nc1cccc(C(F)(F)F)c1`, the GI50 with A498, in the test with CAKI-1, in the test with SK-OV-3, in the test with SK-MEL-28, in the test on Hs-578T and in the test with OVCAR-3 was > 100 µM (inactive) in each case. For the same compound, the GI50 with MCF7, in the test on KM12, in the test on OVCAR-4, with SNB-19, with TK-10 and in the test with LOX IMVI was > 100 µM (inactive) each time. The GI50 in the test with SNB-75, in the test with Malme-3M, in the test on 786-0, in the test with UACC-257 and in the test with HCC 2998 was > 100 µM (inactive) each time.

As for `Cn1c(=O)n2n(c1=O)C1C(=CC2)C2C=CC1n1c(=O)n(C)c(=O)n12` (stereo not given), the GI50 with A498, with DU-145, in the test on CAKI-1, with SK-OV-3, with SK-MEL-28 and in the test with Hs-578T was > 100 µM (inactive) throughout. Moreover, the GI50 in the test on OVCAR-3, in the test on KM12, in the test on SNB-19, in the test on TK-10, in the test on LOX IMVI and in the test with SNB-75 was > 100 µM (inactive) throughout. Besides, the GI50 in the test on Malme-3M, in the test with T47D, in the test on 786-0, with NCI-H522 and with UACC-257 was > 100 µM (inactive) in each case.

With `O=C1CC2(c3ccccc3)ON=C(c3ccccc3)N2c2ccccc2N1` (stereo not given), the GI50 in the test on A498 is 95.3 µM (inactive); with DU-145, 61.5 µM (inactive); in the test on SK-OV-3 it was 19.7 µM (inactive); in the test on SK-MEL-28, 50.6 µM (inactive); in the test on OVCAR-3, 30.8 µM (inactive); with MCF7, 55.7 µM (inactive). Also, the GI50 in the test with KM12 was 74 µM (inactive); in the test on OVCAR-4, > 100 µM (inactive); in the test on SNB-19, > 100 µM (inactive); in the test with TK-10, 93.5 µM (inactive); in the test on LOX IMVI it was 66.4 µM (inactive); in the test with SNB-75, 52 µM (inactive). In addition, the GI50 is 44.5 µM (inactive) with Malme-3M; 24.6 µM (inactive) in the test on T47D; 88.7 µM (inactive) in the test with 786-0; 41.6 µM (inactive) in the test on NCI-H522; 71.8 µM (inactive) in the test on UACC-257; 65 µM (inactive) with HCC 2998.

`O=C(NCC(C(=O)OCc1ccccc1)C(=O)OCc1ccccc1)OCc1ccccc1`: the GI50 in the test on DU-145, in the test with CAKI-1, with SK-OV-3, in the test with SK-MEL-28, in the test on Hs-578T and in the test with OVCAR-3 was > 100 µM (inactive) throughout. The GI50 is 49.3 µM (inactive) with MCF7; > 100 µM (inactive) in the test on KM12; > 100 µM (inactive) with SNB-19; > 100 µM (inactive) with TK-10; > 100 µM (inactive) with SNB-75; > 100 µM (inactive) in the test with Malme-3M. Also, the GI50 was > 100 µM (inactive) in the test on 786-0, 72.6 µM (inactive) in the test on NCI-H522, > 100 µM (inactive) in the test with UACC-257 and > 100 µM (inactive) in the test with HCC 2998.

With `CSc1nc2c(c(N(C)C)n1)C=Nn1c(nc3ccccc31)S2`, the GI50 with A498 is > 100 µM (inactive); with DU-145, 78 µM (inactive); in the test on CAKI-1, > 100 µM (inactive); with SK-OV-3 it was > 100 µM (inactive); with SK-MEL-28, > 100 µM (inactive); in the test with Hs-578T, 41.4 µM (inactive). For the same compound, the GI50 in the test on OVCAR-3 is > 100 µM (inactive); in the test with KM12 it was > 100 µM (inactive); in the test with OVCAR-4 it was 81.8 µM (inactive); with SNB-19, > 100 µM (inactive); in the test on TK-10 it was > 100 µM (inactive); in the test on LOX IMVI it was 76.2 µM (inactive). For the same compound, the GI50 in the test with SNB-75 is 64.1 µM (inactive); with Malme-3M, 91 µM (inactive); in the test with T47D, 64.1 µM (inactive); with 786-0, 65 µM (inactive); in the test with NCI-H522, 55.5 µM (inactive); in the test with UACC-257 it was 99.1 µM (inactive). Further, in the test on HCC 2998, the GI50 is 70.5 µM (inactive).

Turning to `CO[C@H]1C[C@H](O[C@H]2CC[C@]3(C=O)[C@H]4CC[C@]5(C)[C@@H](C6=CC(=O)OC6)CC[C@]5(O)[C@@H]4CC[C@]3(O)C2)O[C@H](C)[C@H]1O[C@@H]1O[C@H](CO)[C@@H](O)[C@H](O)[C@H]1O`, the GI50 with A498 was 5.81e-05 µM (active); in the test with DU-145, 6.34e-06 µM (active); in the test with CAKI-1, 1.34e-05 µM (active); in the test with SK-OV-3 it was 4.23e-05 µM (active); in the test with SK-MEL-28 it was 6.43e-05 µM (active); in the test with Hs-578T, > 0.01 µM (active). Besides, the GI50 with OVCAR-3 was 7.67e-06 µM (active); in the test on KM12 it was 9.1e-05 µM (active); with OVCAR-4 it was 8.63e-06 µM (active); with SNB-19 it was 8.93e-05 µM (active); in the test with TK-10, 2.48e-05 µM (active); in the test with LOX IMVI, 2.61e-05 µM (active). Moreover, the GI50 was 5.1e-05 µM (active) in the test with SNB-75; 2.7e-05 µM (active) in the test with Malme-3M; 5.53e-05 µM (active) in the test on T47D; > 0.01 µM (active) with 786-0; 6.87e-06 µM (active) with NCI-H522; 8.22e-05 µM (active) with UACC-257. Moreover, in the test on HCC 2998, the GI50 was > 0.01 µM (active).

For the origin of these results see ChEMBL document CHEMBL1201862, “PubChem BioAssay data set” (2004).
